Source: US20260022114A1, “N-(5-SUBSTITUTED-[(1,3,4-THIADIAZOLYL) OR (1,3-THIAZOLYL)](SUBSTITUTED)CARBOXAMIDE COMPOUNDS, PHARMACEUTICAL COMPOSITIONS, AND METHODS OF PREPARING THE AMIDE COMPOUNDS AND OF THEIR USE” (Repare Therapeutics Inc., priority 2022, published 2026)
pIC50: −log10 of the molar value. Entries after “also recorded” stand apart in the source; their conditions may differ. Values belong to the molecule of their own block, whether it stands above or below them.

Key:
HCT116 BRCA2−/− tumor = assay: Polθ-PARP inhibitor combination therapy, tumor volume in mice; assay type: in vivo, SCID-Beige mice; details: Compound 113 30 mg/kg SDD suspension p.o. QD with olaparib 25 mg/kg p.o. QD; N=10, p=0.0008 (FIG. 2)
Experimental: (§1) A spray dried dispersion (SDD) formulation was developed using Compound 113. A 1:1 (w/w) mixture of Compound 113 and HPMCAS (grade H) were fully dissolved in a 4:1 (v/v) mixture of dichloromethane:methanol at a loading of ˜5% solid (w/w). The solution was spray-dried to an amorphous powder which was further dried overnight in a vacuum oven set to 40° C. to remove residual solvents. This SDD material was used for subsequent in vivo dosing in mouse models.
HCT116-BRCA2−/− (10^7 cells/mouse) cells were injected subcutaneously in SCID-Beige mice. Mice were randomized at a mean tumor volume of 150 mm^3. Compound 113 (30 mg/kg as an SDD suspension in 0.5% methocel+0.02% SLS) and PARP inhibitor olaparib (25 mg/kg) were dosed orally (p.o.) QD throughout the study. Control mice were dosed QD with vehicle solution. Tumor volumes measured (caliper) every 3-4 days. N=10, Welch's t test, *** p=0.0008.

[1] = system: MDAMB436 BRCA1 mutant breast tumor cells; assay: Polθ-DNA-PK inhibitor combination, cell viability by Incucyte; assay type: cell-based; details: in combination with AZD-7648 (DNA-PK inhibitor), 9 days (FIG. 3)
Experimental: MDAMB436 BRCA1 mutant breast tumor cells were plated at 1500 cells/well in 96 well plates. Compounds were added on day 1 and cells were grown in at 37° C. for 9 days. Cell growth was assessed by the Incucyte assay. Cell viability was normalized to untreated cells.

[2] = system: DLD1 BRCA2 null tumor cells; assay: as above; assay type: cell-based; details: in combination with AZD-7648 (DNA-PK inhibitor), 8 days (FIG. 4)
Experimental: DLD1 BRCA2 null tumor cells were plated at 1000 cells/well in 96 well plates. Compounds were added on day 1 and cells were grown in at 37° C. for 8 days. Cell growth was assessed by the Incucyte assay. Cell viability was normalized to untreated cells.

DLD1-BRCA2−/− tumors = assay: Compound 113 and carboplatin, tumor volume in mice; assay type: in vivo, SCID-Beige mice; details: Compound 113 45 mg/kg SDD suspension p.o. QD with carboplatin 25 mg/kg i.p. QW; day 35 N=10, p=0.0428 (FIG. 6A, 6B)
Experimental: as §1
DLD1-BRCA2−/− (10^7 cells/mouse) cells were injected subcutaneously in SCID-Beige mice. Mice were randomized at a mean tumor volume of 150 mm^3. Compound 113 (45 mg/kg as an SDD suspension in 0.5% methocel+0.02% SLS) was dosed orally (p.o.) QD throughout the study. Carboplatin (25 mg/kg) was dosed i.p. QW. Control mice were dosed QD and QW with corresponding vehicle solutions. Tumor volumes were measured (caliper) every 2-3 days.

[3] = system: DOTC24510 BRCA 2 mutant breast tumor cells; assay: Compound 113 and radiotherapy, cell viability by Incucyte; assay type: cell-based; details: 200 nM Compound 113 with radiotherapy at 0.5 or 1 Gy on days 2, 6, 9; read day 13 (FIG. 5)
Experimental: DOTC24510 BRCA 2 mutant breast tumor cells were plated in 96 well plates at a density of 1000 cells per well and cultured in tissue culture medium at 37° C. On day 1, cells were treated with either DMSO or 200 nM of Compound 113. Cells were irradiated with 0, 0.25, 0.5 or 1 Gy of radiation on days 2, 6, and 9. Cell viability was assessed by Incucyte assay on day 13.

HCT116 BRCA2−/− cells = assay: Combination of Compound 113 and PARP inhibitors, cell growth by Incucyte; assay type: cell-based
Experimental: HCT116-BRCA2−/− (750 cells/well) cells were seeded in a 96-well plate (Costar 3595) and incubated overnight in a tissue culture incubator (5% CO2, 37° C.). The next day, Compound 113 and PARP inhibitors (olaparib or niraparib) were added using a TECAN D300 instrument. Media was replenished with fresh compounds every 3 or 4 days. Cellular growth was monitored using the Incucyte® Live-Cell Analysis System until DMSO-treated wells reached 90% confluency (10-12 days). Cellular confluency was determined using Incucyte® Cell-by-Cell Analysis Software Module and dose-response curves calculated using GraphPad Prism software.

[4] = target: PolQ ATPase enzyme (1-894) (Homo sapiens (Human), UniProt O75417); assay: Polθ ATPase enzymatic assay (3 nM enzyme concentration), ADP-Glo; assay type: biochemical
Experimental: Following pre-incubation with inhibitors, DNA (Fork C) at 20 nM and ATP at 100 μM are added to start the reaction. Enzymatic reaction proceeds at rt for 60 min. ATP consumption is measured using the ADP-Glo assay from Promega. Luminescence is read on the Envision and IC50 are determined using the variable slope 4-parameters equation.
DNA (Fork C) is made by annealing 3 different oligos containing the following sequence of nucleotides:
Oligos are annealed by heating at 95° C. for 5 min in the following buffer (10 mM Tris-HCl PH7.5, 50 mM NaCl, 1 mM EDTA) and cooled to rt.
In Table 4, the Compounds were prepared according to Methods described previously using Intermediates described herein, commercially available reagents or intermediates described in the literature. In some cases, the use of protecting groups may be required to prepare Compounds described below.

Sequence of PolQ ATPase enzyme (1-894) (O75417 1-894): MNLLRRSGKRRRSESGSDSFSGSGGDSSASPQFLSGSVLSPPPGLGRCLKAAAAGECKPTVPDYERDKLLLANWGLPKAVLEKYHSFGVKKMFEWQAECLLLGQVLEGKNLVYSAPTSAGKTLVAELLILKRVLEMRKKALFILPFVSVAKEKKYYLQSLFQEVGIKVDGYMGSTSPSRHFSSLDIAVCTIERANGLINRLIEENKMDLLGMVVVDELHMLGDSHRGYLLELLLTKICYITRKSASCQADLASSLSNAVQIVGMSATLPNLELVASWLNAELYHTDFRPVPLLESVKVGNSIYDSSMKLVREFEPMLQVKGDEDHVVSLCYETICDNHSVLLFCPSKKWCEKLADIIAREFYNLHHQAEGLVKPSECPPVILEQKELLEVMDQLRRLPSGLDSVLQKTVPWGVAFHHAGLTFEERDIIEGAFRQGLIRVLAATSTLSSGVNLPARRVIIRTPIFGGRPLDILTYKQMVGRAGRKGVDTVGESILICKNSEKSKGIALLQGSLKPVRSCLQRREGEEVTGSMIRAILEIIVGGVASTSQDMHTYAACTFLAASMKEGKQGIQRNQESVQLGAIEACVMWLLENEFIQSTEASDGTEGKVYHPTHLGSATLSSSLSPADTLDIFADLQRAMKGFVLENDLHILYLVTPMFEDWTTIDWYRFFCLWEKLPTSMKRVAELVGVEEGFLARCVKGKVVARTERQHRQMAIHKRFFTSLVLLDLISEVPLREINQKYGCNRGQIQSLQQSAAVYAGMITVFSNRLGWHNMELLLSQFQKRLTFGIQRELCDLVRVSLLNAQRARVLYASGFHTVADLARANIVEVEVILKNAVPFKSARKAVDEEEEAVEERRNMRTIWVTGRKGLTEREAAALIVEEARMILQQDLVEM

Compound: COc1cnc(C(F)F)cc1-c1cc(-c2ccn(C)n2)ncc1C(=O)Nc1nnc(C#CC2CC2)s1 [Compound 113, N-(5-(cyclopropylethynyl)-1,3,4-thiadiazol-2-yl)-2′-(difluoromethyl)-5′-methoxy-6-(1-methyl-1H-pyrazol-3-yl)-[4,4′-bipyridine]-3-carboxamide]
HCT116 BRCA2−/− tumor volume, combination versus inhibitors alone (HCT116 BRCA2−/− tumor): superior at reducing tumor volume
MDAMB436 BRCA1 cell viability, combination versus AZD-7648 alone [1]: sensitizes MDAMB436 breast tumor cells to AZD-7648; also recorded: superior at reducing MDAMB436 BRCA1 cell viability
DLD1 BRCA2 null tumor cell viability, combination versus AZD-7648 alone [2]: sensitizes DLD1 BRCA2 null tumor cells to AZD-7648; also recorded: superior at reducing DLD1 BRCA2 null tumor cell viability
DLD1-BRCA2−/− tumor volume, combination versus monotherapy treatments (DLD1-BRCA2−/− tumors): sensitizes DLD1 BRCA2 null tumors to carboplatin; also recorded: superior at reducing tumor volume in mice
DOTC24510 BRCA 2 mutant breast tumor cell viability, combination versus Compound 113 alone [3]: sensitizes DOTC24510 breast tumor cells to irradiation; also recorded: superior at reducing DOTC24510 BRCA 2 mutant breast tumor cell viability
percent viability of HCT116 BRCA2−/− cells, combination versus inhibitors alone (HCT116 BRCA2−/− cells; in combination with niraparib, 10-12 days (FIG. 1B)): superior at reducing cancer cell viability
percent viability of HCT116 BRCA2−/− cells, combination versus inhibitors alone (HCT116 BRCA2−/− cells; in combination with olaparib, 10-12 days (FIG. 1A)): superior at reducing cancer cell viability

pIC50 [4]: 7.04
Compound: COc1ccc(F)cc1-c1cnccc1C(=O)Nc1nnc([C@@H]2C[C@H]2c2nc3ccccc3n2C)s1 (racemic) [Compound 4, 3-(5-fluoro-2-methoxyphenyl)-N-(5-((1R,2R)-2-(1-methyl-1H-benzo[d]imidazol-2-yl)cyclopropyl)-1,3,4-thiadiazol-2-yl)isonicotinamide]
